Assay results reported in publication PMC2566891 (Nucleic Acids Research, 2008).

Test system: 14-3-3
Assay: Binding of p53 peptides to 14-3-3, isoform not given
Conditions: isoform not specified; wild-type p53CT tested up to 200 µM; pS392 by AUC

WT TC (293–393): wild-type tetramerization plus C-terminal domains of p53 (293–393), semi-synthetic
binding to 14-3-3 (in words): very weak binding
